Laboratory results as given in PubChem BioAssay AID192 (DTP/NCI, 2004).
“And” between values parts separate entries of the source, which are not always exact repeats. Equal entries are not always repeated. Inconclusive results and toxic doses are left out. Rule for the calls: active = survival T/C of 150% or more; inactive = T/C below 125% in these data.

System: BDF1 mice, B16 melanoma ip, median survival T/C
Assay: NCI In Vivo Anticancer Drug Screen. Data for tumor model B16 Melanoma (intraperitoneal) in B6D2F1 (BDF1) mice
Conditions: endpoint: median survival time, higher = longer survival
Outline: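 The ratio T/C compares compound-treated mice with vehicle-treated controls, using survival or tumor size as the endpoint in a transplantable tumor model.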

[1] = dose: 50.0 mg/kg/injection, schedule: Q01DX009 (ip), vehicle: saline
[2] = dose: 100.0 mg/kg/injection, schedule: Q01DX009 (ip), vehicle: saline
[3] = dose: 200.0 mg/kg/injection, schedule: Q01DX009 (ip), vehicle: saline
[4] = dose: 100.0 mg/kg/injection, schedule: Q01DX009 (ip), vehicle: saline with Tween-80
[5] = dose: 200.0 mg/kg/injection, schedule: Q01DX009 (ip), vehicle: saline with Tween-80
[6] = dose: 100.0 mg/kg/injection, schedule: Q01DX009 (ip), vehicle: Klucel (hydroxypropylcellulose) (HPC)
[7] = dose: 200.0 mg/kg/injection, schedule: Q01DX009 (ip), vehicle: Klucel (hydroxypropylcellulose) (HPC)
[8] = dose: 400.0 mg/kg/injection, schedule: Q01DX009 (ip), vehicle: Klucel (hydroxypropylcellulose) (HPC)
[9] = dose: 0.5 mg/kg/injection, schedule: Q01DX009 (ip), vehicle: saline
[10] = dose: 6.25 mg/kg/injection, schedule: Q01DX009 (ip), vehicle: saline
[11] = dose: 12.5 mg/kg/injection, schedule: Q01DX009 (ip), vehicle: saline
[12] = dose: 25.0 mg/kg/injection, schedule: Q01DX009 (ip), vehicle: saline
[13] = dose: 12.5 mg/kg/injection, schedule: Q01DX009 (ip), vehicle: saline with Tween-80
[14] = dose: 25.0 mg/kg/injection, schedule: Q01DX009 (ip), vehicle: saline with Tween-80
[15] = dose: 50.0 mg/kg/injection, schedule: Q01DX009 (ip), vehicle: saline with Tween-80
[16] = dose: 100.0 mg/kg/injection, schedule: Q04DX003 (ip), vehicle: saline with Tween-80
[17] = dose: 100.0 mg/kg/injection, schedule: Q04DX003 (ip), vehicle: Klucel (hydroxypropylcellulose) (HPC)
[18] = dose: 6.25 mg/kg/injection, schedule: Q01DX009 (ip), vehicle: saline with Tween-80
[19] = dose: 3.12 mg/kg/injection, schedule: Q01DX009 (ip), vehicle: Klucel (hydroxypropylcellulose) (HPC)
[20] = dose: 6.25 mg/kg/injection, schedule: Q01DX009 (ip), vehicle: Klucel (hydroxypropylcellulose) (HPC)
[21] = dose: 12.5 mg/kg/injection, schedule: Q01DX009 (ip), vehicle: Klucel (hydroxypropylcellulose) (HPC)
[22] = dose: 25.0 mg/kg/injection, schedule: Q01DX009 (ip), vehicle: Klucel (hydroxypropylcellulose) (HPC)
[23] = dose: 50.0 mg/kg/injection, schedule: Q01DX009 (ip), vehicle: Klucel (hydroxypropylcellulose) (HPC)

Measured: T/C

O=C(O)C(Cl)Cc1cnc[nH]1 (stereo not given)
inactive: [1] 111 % of control | [2] 111 % of control | [3] 112 % of control

c1cc[c]([Pb]([c]2ccccc2)([c]2ccccc2)[n]2ccc3ccccc32)cc1
inactive: dose: 2.08 mg/kg/injection, schedule: Q01DX009 (ip), vehicle: saline with Tween-80 102 % of control | dose: 3.12 mg/kg/injection, schedule: Q01DX009 (ip), vehicle: saline with Tween-80 97 % of control

Cc1cc(C)c(OCC(O)CO)c(C)c1 (stereo not given)
inactive: [4] 104 % of control | [5] 93 % of control

CN(C)c1ccc(C=Nc2ccc3c(c2)Cc2ccccc2-3)cc1
inactive: [6] 106 % of control | [7] 93 % of control | [8] 90 % of control

C/C=C1\C[C@@H]2C(OC)Nc3cc(O)c(OC)cc3C(=O)N2C1 (stereo not given in full)
inactive: dose: 0.03 mg/kg/injection, schedule: Q01DX009 (ip), vehicle: saline 100 % of control | dose: 0.06 mg/kg/injection, schedule: Q01DX009 (ip), vehicle: saline 112 % of control | dose: 0.12 mg/kg/injection, schedule: Q01DX009 (ip), vehicle: saline 115 % of control | dose: 0.12 mg/kg/injection, schedule: Q01DX009 (ip), vehicle: suspension in saline 105 % of control | dose: 0.25 mg/kg/injection, schedule: Q01DX009 (ip), vehicle: saline 112 % of control | dose: 0.25 mg/kg/injection, schedule: Q01DX009 (ip), vehicle: suspension in saline 96 % of control | [9] 115 % of control | dose: 0.5 mg/kg/injection, schedule: Q01DX009 (ip), vehicle: suspension in saline 96 % of control

COc1cc(O)c(Cc2ccccc2O)c(O)c1C(=O)CCc1ccccc1
inactive: dose: 1.25 mg/kg/injection, schedule: Q01DX009 (ip), vehicle: other 100 % of control | dose: 2.5 mg/kg/injection, schedule: Q01DX009 (ip), vehicle: other 100 % of control | dose: 5.0 mg/kg/injection, schedule: Q01DX009 (ip), vehicle: other 92 % of control | dose: 10.0 mg/kg/injection, schedule: Q01DX009 (ip), vehicle: other 100 % of control

CCCCCCCCP(=O)(N1CC1C)N1CC1C (stereo not given)
inactive: dose: 3.12 mg/kg/injection, schedule: Q01DX009 (ip), vehicle: saline 101 % of control | [10] 102 % of control | [11] 97 % of control | [12] 102 % of control

CN(C)CCC(c1ccccc1)c1cc(Cl)ccn1 (stereo not given)
inactive: [10] 100 % of control | [11] 103 % of control | [12] 97 % of control | [1] 97 % of control | [2] 99 % of control

C=CCNc1nc2c(s1)CCc1cc(OC)c(OC)cc1-2
inactive: [13] 104 % of control | [14] 106 % of control | [15] 115 % of control | [4] 104 % of control | [5] 104 % of control

CCOC(=O)CC(SP(=S)(OC)OC)C(=O)OCC (stereo not given)
inactive: [14] 94 % of control and 107 % of control | [12] 106 % of control | [15] 96 % of control and 97 % of control | [1] 95 % of control | [4] 91 % of control and 98 % of control | [2] 101 % of control | [5] 88 % of control and 96 % of control | [3] 101 % of control

CCOC(=O)c1ccc(OC(=O)Nc2ccc(Cl)cc2)cc1
inactive: [4] 96 % of control | [5] 92 % of control

CCC[CH2][Sn]([CH2]CCC)([S]C#N)[S]C#N
inactive: dose: 0.75 mg/kg/injection, schedule: Q01DX009 (ip), vehicle: saline with Tween-80 98 % of control | dose: 1.5 mg/kg/injection, schedule: Q01DX009 (ip), vehicle: saline with Tween-80 101 % of control | dose: 3.0 mg/kg/injection, schedule: Q01DX009 (ip), vehicle: saline with Tween-80 98 % of control

[Br][Ga]([Br])[Br]
inactive: [11] 101 % of control | [12] 96 % of control | [1] 96 % of control

CC(C)=C(C=O)CCC(C)C
inactive: dose: 25.0 mg/kg/injection, schedule: Q04DX003 (ip), vehicle: saline with Tween-80 100 % of control | dose: 50.0 mg/kg/injection, schedule: Q04DX003 (ip), vehicle: saline with Tween-80 95 % of control | [16] 97 % of control and 100 % of control

Cc1c(C(=O)O)cc2n(c1=O)Cc1cc3ccccc3nc1-2
inactive: dose: 25.0 mg/kg/injection, schedule: Q04DX003 (ip), vehicle: Klucel (hydroxypropylcellulose) (HPC) 102 % of control | dose: 50.0 mg/kg/injection, schedule: Q04DX003 (ip), vehicle: Klucel (hydroxypropylcellulose) (HPC) 94 % of control | [17] 89 % of control | [16] 100 % of control

NCC(c1ccccc1)c1ccccc1
inactive: [11] 100 % of control | [12] 91 % of control | [1] 91 % of control

CC1(C)N=C(N)N=C(N)N1c1ccc(OCC(=O)N2CCOCC2)c(Cl)c1
inactive: [12] 104 % of control | [1] 93 % of control | [2] 98 % of control

CSc1nc(N)cc(NC(=O)CCl)n1
inactive: [18] 109 % of control | [13] 97 % of control | [14] 89 % of control and 118 % of control | [15] 97 % of control and 120 % of control

CCN(C(=O)Nc1ccc(OC)cc1)c1ccccc1C
inactive: [17] 102 % of control | dose: 200.0 mg/kg/injection, schedule: Q04DX003 (ip), vehicle: Klucel (hydroxypropylcellulose) (HPC) 102 % of control | dose: 400.0 mg/kg/injection, schedule: Q04DX003 (ip), vehicle: Klucel (hydroxypropylcellulose) (HPC) 102 % of control

[CH3][Hg][O]C(C)=O
inactive: [19] 94 % of control | [20] 86 % of control

Cc1ccccc1CN1CCN(CCOC(c2ccccc2)c2ccccc2Cl)CC1 (stereo not given)
inactive: [19] 93 % of control and 94 % of control | [20] 93 % of control | [21] 91 % of control and 100 % of control | [22] 86 % of control and 89 % of control | [23] 86 % of control

O=C(NC(CSCc1ccccc1)C(=O)O)OCc1ccccc1 (stereo not given)
inactive: [13] 107 % of control | [14] 107 % of control | [15] 98 % of control and 103 % of control | [4] 87 % of control

COc1cccc(CNc2cccc([N+](=O)[O-])c2)c1OC
inactive: [6] 100 % of control | [7] 110 % of control | [8] 105 % of control

C/C=C\C#N
inactive: [1] 107 % of control | [2] 107 % of control

CCC(=O)NC1=C(N2CC2)C(=O)C(NC(=O)CC)=C(N2CC2)C1=O
inactive: [9] 107 % of control | dose: 1.0 mg/kg/injection, schedule: Q01DX009 (ip), vehicle: saline 107 % of control | dose: 2.0 mg/kg/injection, schedule: Q01DX009 (ip), vehicle: saline 113 % of control

CC(O)c1cc(Cl)ccc1Cl (stereo not given)
inactive: [4] 93 % of control | [16] 107 % of control | [5] 115 % of control | dose: 200.0 mg/kg/injection, schedule: Q04DX003 (ip), vehicle: saline with Tween-80 107 % of control | dose: 400.0 mg/kg/injection, schedule: Q01DX009 (ip), vehicle: saline with Tween-80 103 % of control

COC1C(CO)OC(n2cnc3c(=S)nc(N)[nH]c32)C1O (stereo not given)
inactive: [21] 112 % of control | [22] 103 % of control | [23] 108 % of control

O=c1cccccc1O.O=c1cccccc1O.[Cu]
inactive: dose: 0.39 mg/kg/injection, schedule: Q01DX009 (ip), vehicle: Klucel (hydroxypropylcellulose) (HPC) 102 % of control | dose: 0.78 mg/kg/injection, schedule: Q01DX009 (ip), vehicle: Klucel (hydroxypropylcellulose) (HPC) 92 % of control

CC(=O)OC1CCC2(C)C(CCC3C2C(=O)C(OC(C)=O)C2(C)C3CC3OC4(CCC(C)CO4)C(C)C32)C1 (stereo not given)
inactive: dose: 1.56 mg/kg/injection, schedule: Q01DX009 (ip), vehicle: saline with Tween-80 98 % of control | dose: 3.13 mg/kg/injection, schedule: Q01DX009 (ip), vehicle: saline with Tween-80 108 % of control | [18] 91 % of control and 93 % of control | [14] 89 % of control
